Laboratory results taken from ChEMBL document CHEMBL5365447, “Pronucleotides of 2',3'-Dideoxy-2',3'-Didehydrothymidine as Potent Anti-HIV Compounds” (J Med Chem, 2023).
The source made the active and inactive calls. No cut-off for these calls is given here.

Experiments:
[1] = Prodrug conversion in human CEM/0 cell extract assessed as ((2S,5R)-5-(5-methyl-2,4-dioxo-3,4-dihydropyrimidin-1(2H)-yl)-2,5-dihydrofuran-2-yl)methyl tetrahydrogen triphosphate formation by HPLC analysis; assay type: ADME; details: ccrf-cem
[2] = Cytotoxicity against human CEM cells assessed as reduction in cell viability incubated for 4 to 5 days by light microscopic analysis; assay type: toxicity, cell-based; details: CEM cells (CCRF-CEM), time 4-5 day
[3] = molecular target: T1, DNA polymerase subunit gamma-1 (Homo sapiens) (UniProt P54098); experiment: Substrate activity at human DNA polymerase gamma measured after 4 hrs by electrophoresis based primer extension assay
T1 sequence (whole entry): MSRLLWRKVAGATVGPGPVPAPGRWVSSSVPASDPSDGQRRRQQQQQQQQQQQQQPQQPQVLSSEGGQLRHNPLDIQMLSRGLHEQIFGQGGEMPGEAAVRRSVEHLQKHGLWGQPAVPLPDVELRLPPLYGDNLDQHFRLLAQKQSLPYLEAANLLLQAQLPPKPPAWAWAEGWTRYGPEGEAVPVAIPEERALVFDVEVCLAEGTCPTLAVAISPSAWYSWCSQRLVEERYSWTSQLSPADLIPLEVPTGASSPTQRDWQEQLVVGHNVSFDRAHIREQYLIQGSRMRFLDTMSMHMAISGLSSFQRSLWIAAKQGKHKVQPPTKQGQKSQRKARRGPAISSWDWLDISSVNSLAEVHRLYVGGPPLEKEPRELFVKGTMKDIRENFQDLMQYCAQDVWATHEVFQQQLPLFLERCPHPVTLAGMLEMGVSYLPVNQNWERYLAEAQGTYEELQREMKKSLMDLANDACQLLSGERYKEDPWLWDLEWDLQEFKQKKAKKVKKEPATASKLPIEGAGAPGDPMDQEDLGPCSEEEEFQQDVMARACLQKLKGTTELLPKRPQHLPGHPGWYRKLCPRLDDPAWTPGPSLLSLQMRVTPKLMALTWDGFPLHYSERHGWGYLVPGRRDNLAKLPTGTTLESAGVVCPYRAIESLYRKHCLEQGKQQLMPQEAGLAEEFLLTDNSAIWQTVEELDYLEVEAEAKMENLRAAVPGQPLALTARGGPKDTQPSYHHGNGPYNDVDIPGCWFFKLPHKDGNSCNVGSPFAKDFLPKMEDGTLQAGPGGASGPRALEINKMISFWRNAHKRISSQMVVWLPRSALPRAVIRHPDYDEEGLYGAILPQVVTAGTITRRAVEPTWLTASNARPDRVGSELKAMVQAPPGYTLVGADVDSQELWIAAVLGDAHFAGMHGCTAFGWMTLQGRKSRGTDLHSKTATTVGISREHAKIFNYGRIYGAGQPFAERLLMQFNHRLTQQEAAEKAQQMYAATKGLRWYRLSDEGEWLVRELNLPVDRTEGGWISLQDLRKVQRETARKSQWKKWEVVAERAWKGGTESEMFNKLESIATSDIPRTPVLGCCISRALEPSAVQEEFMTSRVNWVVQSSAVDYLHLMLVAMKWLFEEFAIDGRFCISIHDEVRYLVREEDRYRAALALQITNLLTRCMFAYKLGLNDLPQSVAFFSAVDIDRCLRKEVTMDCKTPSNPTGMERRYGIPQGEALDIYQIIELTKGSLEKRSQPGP

[4] = Retention time of the compound by HPLC analysis; assay type: physicochemical
[5] = Chemical stability of the compound in phosphate buffer assessed as half life at pH 7.3 by HPLC analysis; assay type: physicochemical
[6] = tested on: Human immunodeficiency virus 2; experiment: Potency index, ratio of 3'-deoxy-2',3'-dehydrothymidine EC50 to compound EC50 for antiviral activity against HIV-2 ROD infected in thymidine kinase-deficient human CEM[…] cells; assay type: functional
[7] = tested on: Human immunodeficiency virus 1; experiment: Potency index, ratio of 3'-deoxy-2',3'-dehydrothymidine EC50 to compound EC50 for antiviral activity against HIV-1 HE infected in wild-type human CEM/0 cells; assay type: functional
[8] = molecular target: DNA polymerase beta (Homo sapiens) (UniProt P06746); experiment: Substrate activity at human DNA polymerase beta measured after 4 hrs by electrophoresis based primer extension assay
[9] = Prodrug conversion in human CEM/0 cell extract assessed as ((2S,5R)-5-(5-methyl-2,4-dioxo-3,4-dihydropyrimidin-1(2H)-yl)-2,5-dihydrofuran-2-yl)methyl tri-hydrogen diphosphate formation by HPLC analysis; assay type: ADME; details: ccrf-cem
[10] = tested on: Human immunodeficiency virus; experiment: Substrate activity at HIV reverse transcriptase measured after 4 hrs by electrophoresis based primer extension assay
[11] = molecular target: T2, DNA polymerase alpha catalytic subunit (Homo sapiens) (UniProt P09884); experiment: Substrate activity at human DNA polymerase alpha measured after 4 hrs by electrophoresis based primer extension assay
T2 sequence (whole entry): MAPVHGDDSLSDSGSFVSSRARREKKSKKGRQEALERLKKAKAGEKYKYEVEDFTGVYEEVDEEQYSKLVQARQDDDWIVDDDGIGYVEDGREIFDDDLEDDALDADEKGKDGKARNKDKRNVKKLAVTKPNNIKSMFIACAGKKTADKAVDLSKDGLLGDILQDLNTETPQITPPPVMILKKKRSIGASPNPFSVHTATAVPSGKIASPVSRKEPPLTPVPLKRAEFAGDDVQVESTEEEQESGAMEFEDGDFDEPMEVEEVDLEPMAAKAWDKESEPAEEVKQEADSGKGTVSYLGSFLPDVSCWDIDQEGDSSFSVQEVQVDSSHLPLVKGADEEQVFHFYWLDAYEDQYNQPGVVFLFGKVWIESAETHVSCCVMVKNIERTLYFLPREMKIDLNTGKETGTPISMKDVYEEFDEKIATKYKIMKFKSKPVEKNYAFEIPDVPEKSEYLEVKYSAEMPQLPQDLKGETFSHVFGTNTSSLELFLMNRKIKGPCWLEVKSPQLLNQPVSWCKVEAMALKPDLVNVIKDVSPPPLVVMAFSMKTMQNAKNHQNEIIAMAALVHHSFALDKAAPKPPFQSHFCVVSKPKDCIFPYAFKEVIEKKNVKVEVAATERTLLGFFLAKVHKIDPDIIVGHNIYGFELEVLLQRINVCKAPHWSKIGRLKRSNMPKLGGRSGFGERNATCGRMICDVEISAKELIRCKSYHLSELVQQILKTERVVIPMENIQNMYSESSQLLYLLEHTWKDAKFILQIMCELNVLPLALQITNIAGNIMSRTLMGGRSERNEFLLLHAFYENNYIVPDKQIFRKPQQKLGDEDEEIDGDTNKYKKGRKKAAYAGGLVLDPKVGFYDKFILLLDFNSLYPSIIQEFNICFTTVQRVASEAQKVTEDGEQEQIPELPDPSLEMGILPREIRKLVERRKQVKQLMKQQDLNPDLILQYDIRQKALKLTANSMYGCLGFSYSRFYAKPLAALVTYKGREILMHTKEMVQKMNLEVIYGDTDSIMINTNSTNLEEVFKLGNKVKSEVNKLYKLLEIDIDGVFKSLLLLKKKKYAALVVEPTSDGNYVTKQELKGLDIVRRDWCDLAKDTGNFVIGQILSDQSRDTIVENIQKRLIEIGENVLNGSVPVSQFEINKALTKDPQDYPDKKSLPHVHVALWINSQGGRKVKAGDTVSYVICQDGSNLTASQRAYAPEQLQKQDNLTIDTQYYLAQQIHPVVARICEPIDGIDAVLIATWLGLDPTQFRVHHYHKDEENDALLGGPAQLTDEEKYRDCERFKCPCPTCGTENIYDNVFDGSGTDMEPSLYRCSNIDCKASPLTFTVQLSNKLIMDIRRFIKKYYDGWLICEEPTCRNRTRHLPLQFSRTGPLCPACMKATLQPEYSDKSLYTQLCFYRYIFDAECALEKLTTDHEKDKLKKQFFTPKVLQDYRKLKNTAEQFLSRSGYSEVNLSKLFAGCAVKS

[12] = Prodrug conversion in pH 7.3 phosphate buffer assessed as ((2S,5R)-5-(5-methyl-2,4-dioxo-3,4-dihydropyrimidin-1(2H)-yl)-2,5-dihydrofuran-2-yl)methyl tri-hydrogen diphosphate formation by measuring half life in presence of pig liver esterase by HPLC analysis; assay type: ADME
[13] = Selectivity index, ratio of CC50 for human CEM cells to EC50 for HIV-2 ROD infected in thymidine kinase-deficient human CEM cells; assay type: toxicity; details: read-out: Ratio CC50/EC50
[14] = Prodrug conversion in human CEM/0 cell extract assessed as metabolite formation by measuring half life by HPLC analysis; assay type: ADME; details: ccrf-cem
[15] = tested on: Human immunodeficiency virus 2; experiment: Potency index, ratio of 3'-deoxy-2',3'-dehydrothymidine EC50 to compound EC50 for antiviral activity against HIV-2 ROD infected in wild-type human CEM/0 cells; assay type: functional
[16] = Chemical stability of the compound in phosphate buffer saline assessed as half life at pH 7.3 by HPLC analysis; assay type: physicochemical; details: phosphate buffered saline
[17] = Prodrug conversion in human CEM/0 cell extract assessed as ((2S,5R)-5-(5-methyl-2,4-dioxo-3,4-dihydropyrimidin-1(2H)-yl)-2,5-dihydrofuran-2-yl)methyl dihydrogen phosphate formation by HPLC analysis; assay type: ADME; details: ccrf-cem
[18] = Prodrug conversion in pH 7.3 phosphate buffer assessed as ((2S,5R)-5-(5-methyl-2,4-dioxo-3,4-dihydropyrimidin-1(2H)-yl)-2,5-dihydrofuran-2-yl)methyl dihydrogen phosphate formation by measuring half life in presence of pig liver esterase by HPLC analysis; assay type: ADME
[19] = tested on: Human immunodeficiency virus 2; experiment: Antiviral activity against HIV-2 ROD infected in thymidine kinase-deficient human CEM cells assessed as inhibition of virus-induced cytopathic effect incubated for 4 to 5 days by light microscopic analysis; assay type: functional, organism-based; details: Human immunodeficiency virus 2, ROD, CCRF-CEM
[20] = tested on: Human immunodeficiency virus 1; experiment: Antiviral activity against HIV-1 HE infected in wild-type human CEM/0 cells assessed as inhibition of virus-induced cytopathic effect incubated for 4 to 5 days by light microscopic analysis; assay type: functional, organism-based; details: Human immunodeficiency virus 1, HE, CCRF-CEM
[21] = tested on: Human immunodeficiency virus 2; experiment: Antiviral activity against HIV-2 ROD infected in wild-type human CEM/0 cells assessed as inhibition of virus-induced cytopathic effect incubated for 4 to 5 days by light microscopic analysis; assay type: functional, organism-based; details: Human immunodeficiency virus 2, ROD, CCRF-CEM

| Compound | Drug metabolism [1] | CC50 [2] [nM] | Activity [3] | Retention_time [4] [min] | half-life [5] [h] | Activity [8] | Drug metabolism [9] | Activity [10] | Activity [11] | t1/2 [12] [h] | selectivity ratio [13] | t1/2 [14] [h] | half-life [16] [days] | Drug metabolism [17] | EC50 [19] [nM] | EC50 [20] [nM] | EC50 [21] [nM] | t1/2 [18] [h] | further results |
| --- | --- | --- | --- | --- | --- | --- | --- | --- | --- | --- | --- | --- | --- | --- | --- | --- | --- | --- | --- |
| CCCCCCCCCCCCCCCCCCOP(=O)(OCCCC)OP(=O)(O)OP(=O)(O)OC[C@@H]1C=C[C@H](n2cc(C)c(=O)[nH]c2=O)O1.N.N (stereo not given in full) | Metabolite_Notdetected | 30000 | inactive | 16.2 | 990 | inactive | Metabolite_Detected | Active | inactive | > 150 | 938 | > 10 | – | – | – | – | – | – | Ratio EC50 [6]: 10000; Ratio EC50 [7]: 4; Ratio EC50 [15]: 4 |
| CCCCCCCCCCCCCCCCCCP(=O)(OCCCC)OP(=O)(O)OP(=O)(O)OC[C@@H]1C=C[C@H](n2cc(C)c(=O)[nH]c2=O)O1.N.N (stereo not given in full) | Metabolite_Notdetected | 33000 | inactive | 15.9 | > 1700 | inactive | Metabolite_Detected | inactive | inactive | > 150 | – | > 15 | – | – | – | – | – | – | – |
| CCCCCCCCCCCCCCCCCCOP(=O)(OCCCCCCCC)OP(=O)(O)OC[C@@H]1C=C[C@H](n2cc(C)c(=O)[nH]c2=O)O1.N (stereo not given in full) | – | 46500 | inactive | 20.8 | – | inactive | Metabolite_Notdetected | – | inactive | – | 4220 | – | > 41.7 | Metabolite_Detected | 11 | 71 | 45 | – | Drug metabolism [18]: Metabolite_Notdetected; Drug metabolism [14]: Metabolite_Notdetected |
| CCCCCCCCCCCCCCCCCCOP(=O)(OCCCC)OP(=O)(O)OC[C@@H]1C=C[C@H](n2cc(C)c(=O)[nH]c2=O)O1.N (stereo not given in full) | – | 41300 | inactive | 18.9 | – | inactive | Metabolite_Notdetected | inactive | inactive | – | 37500 | > 18 | > 41.7 | Metabolite_Detected | 1 | 33 | 4 | > 150 | – |
| CCCCCCCCCCCCCCCCCCP(=O)(OCCCC)OP(=O)(O)OC[C@@H]1C=C[C@H](n2cc(C)c(=O)[nH]c2=O)O1.N (stereo not given in full) | – | 42600 | inactive | 18.5 | – | inactive | Metabolite_Notdetected | Active | inactive | – | 20300 | > 40 | > 125 | Metabolite_Detected | 2 | 31 | 16 | > 150 | – |
